Consider 33 molecules from US9550793B2, “Spirocyclic compounds, compositions and medicinal applications thereof” (Advinus Therapeutics Limited, priority 2012, dated 2017).

In general, IC50 refers to the midpoint of a concentration-inhibition curve. Higher therefore signals weaker potency in that assay. By inhibition is commonly meant the drop in the measured response relative to a control, in per cent. Low readings indicate a weak effect, high ones a strong effect.

For this assay, the target named is T1, hDGAT1 (Homo sapiens, UniProt O75907).
T1 construct: endogenous in cells; host or cells: HEK293H cells
T1 sequence (O75907 1-488): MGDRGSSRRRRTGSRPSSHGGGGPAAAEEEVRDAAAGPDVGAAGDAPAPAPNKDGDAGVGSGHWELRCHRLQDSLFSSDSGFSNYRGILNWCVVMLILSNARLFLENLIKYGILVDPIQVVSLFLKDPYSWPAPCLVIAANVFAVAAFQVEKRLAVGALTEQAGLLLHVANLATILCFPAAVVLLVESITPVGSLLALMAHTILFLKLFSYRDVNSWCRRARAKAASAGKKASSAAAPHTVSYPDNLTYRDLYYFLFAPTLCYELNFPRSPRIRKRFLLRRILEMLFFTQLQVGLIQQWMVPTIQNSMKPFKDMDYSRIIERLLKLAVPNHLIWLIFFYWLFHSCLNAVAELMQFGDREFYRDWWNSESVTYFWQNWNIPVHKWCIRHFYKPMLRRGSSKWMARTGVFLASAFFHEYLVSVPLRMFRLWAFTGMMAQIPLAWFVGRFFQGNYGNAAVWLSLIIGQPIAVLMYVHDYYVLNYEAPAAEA
Briefly: Cell based hDGAT1 inhibitory activity in HEK293H cells (13C-oleic acid to triolein, LC-MS). To be noted: for inhibition at 1 µM: HEK293-H. On the procedure:
Measurement of Cell Based hDGAT1 Inhibitory Activity:
HEK293H cells were seeded in a 96-well poly-D-lysine plate at a density of 80000 cells per well. Following day, cells were washed with assay buffer-DMEM high glucose supplemented with 25 mM Hepes (pH7.5) carrying 0.25% fatty acid-free bovine serum. The cells were starved in assay buffer at 37° C./5% CO2 followed by removal of media and treatment with appropriate concentrations of the test compound at a final concentration of 0.2% DMSO for 20 min. 13C-Oleic acid pre-complexed with BSA (300 uM) was added and cells were incubated further at […]/5% CO2 for 120 min. The supernatant was removed and the cells were allowed to air dry briefly. The extraction solvent (90% isopropyl alcohol and 10% tetrahydrofuran with 20 nM of the internal standard [1,3-di-heptadecanoyl-2-(10Z-heptadecanoyl)-sn-glycerol-d5) was added to the cells, and allowed to shake at room temperature for 15 min. The extract was then transferred to glass vials for LC-MS analysis. An Applied Biosystems API3200 LC/MS system interfaced with a triplequadrupole mass spectrophotometer through a Turbo ion spray source was employed for the LC separation of the analytes using a Hi-Purity ADVANCE column eluted with 10 mM ammonium formate in IPA-H2O (80:20) at a flow rate of 0.4 mL/min. A characteristic in-source fragment ion m/z 639.7 formed from the precursor ion ^13C-54-triolein (m/z 956.8, ammonium adduct) at a collision energy of 30 and declustering potential 70 was monitored. IC50 values of the compounds were determined based on percent inhibition calculated on the basis of area ratio of product (TG) and internal standard (IS).

Each structure is given as a SMILES string.

As to `COC(=O)C1CC2(CCC(c3ccc(NC(=O)c4nnc(Nc5ccc(F)c(F)c5)o4)cc3)CC2)C1` (stereo not drawn) [Example A9, methyl 7-[4-[[5-(3,4-difluoroanilino)-1,3,4-oxadiazole-2-carbonyl]amino]phenyl]spiro[3.5]nonane-2-carboxylate], the IC50 is 31 nM. On the same count and under the same terms, the result for `CCOC(=O)C1CC2(CCN(c3ccc(NC(=O)c4nnc(Nc5ccc(F)c(F)c5)o4)cn3)CC2)C1` [Example A12, ethyl 7-[5-[[5-(3,4-difluoroanilino)-1,3,4-oxadiazole-2-carbonyl]amino]-2-pyridyl]-7-azaspiro[3.5]nonane-2-carboxylate] reads 22 nM. In turn, `O=C(Nc1ccc(N2CCC3(CC2)CC(C(=O)O)C3)nc1)c1nnc(Nc2ccc(OCC(F)(F)F)nc2)o1` [Example B13, 7-[5-[[5-[[6-(2,2,2-trifluoroethoxy)-3-pyridyl]amino]-1,3,4-oxadiazole-2-carbonyl]amino]-2-pyridyl]-7-azaspiro[3.5]nonane-2-carboxylic acid] came in with an IC50 of 47 nM. For the molecule `O=C(Nc1ccc(C2CCC3(CC2)CC3C(=O)O)cc1)c1nnc(Nc2ccc(F)c(F)c2)o1` (stereo not drawn) [Example B14, 6-[4-[[5-(3,4-difluoroanilino)-1,3,4-oxadiazole-2-carbonyl]amino]phenyl] spiro [2.5] octane-2-carboxylic acid], 21 nM corresponded to half-maximal inhibition (IC50). The same measure, in the same setting: the result for `O=C(Nc1ccc(C2CCC3(CC2)CC3C(=O)O)cc1)c1nnc(Nc2ccc(OCC(F)(F)F)nc2)o1` (stereo not drawn) [Example B15, 6-[4-[[5-[[6-(2,2,-trifluoroethoxy)-3-pyridyl]amino]-1,3,4-oxadiazole-2-carbonyl]amino]phenyl] spiro [2.5] octane-2-carboxylic acid] reads 10 nM; that for `O=C(Nc1ccc(C2CCC3(CC2)CC3C(=O)O)cc1)c1nnc(Nc2cccc(Cl)c2)o1` (stereo not drawn) [Example B16, 6-[4-[[5-(3-chloroanilino)-1,3,4-oxadiazole-2-carbonyl]amino]phenyl] spiro [2.5] octane-2-carboxylic acid], 16 nM; that for `O=C(Nc1ccc(N2CCC3(CC2)CC3C(=O)O)nc1)c1nnc(Nc2ccc(OCC(F)(F)F)nc2)o1` (stereo not drawn) [Example B21, 6-[5-[[5-[[6-(2,2,2-trifluoroethoxy)-3-pyridyl]amino]-1,3,4-oxadiazole-2-carbonyl]amino]-2-pyridyl]-6-azaspiro [2.5] octane-2-carboxylic acid], 64 nM. `O=C(Nc1ccc([C@H]2CC[C@]3(CC2)CC3C(=O)O)nc1)c1nnc(Nc2ccccc2)o1` (stereo partly drawn) [Example B24, Trans-6-[5-[(5-anilino-1,3,4-oxadiazole-2-carbonyl)amino]-2-pyridyl] spiro [2.5] octane-2-carboxylic acid] registered an inhibition at 1 µM (1 uM) of 49%. The same measure, in the same setting: next, `O=C(Nc1ccc([C@H]2CC[C@]3(CC2)CC3C(=O)O)nc1)c1nnc(Nc2ccc(F)c(F)c2)o1` (stereo partly drawn) [Example B26, Trans-6-[5-[[5-(3,4-difluoroanilino)-1,3,4-oxadiazole-2-carbonyl]amino]-2-pyridyl] spiro [2.5] octane-2-carboxylic acid]: 37%. As for `O=C(Nc1ccc(N2C3CCC2CC2(CC(C(=O)O)C2)C3)nc1)c1nnc(Nc2ccc(F)c(F)c2)o1` (stereo not drawn) [Example B31, 8-[5-[[5-(3,4-difluoroanilino)-1,3,4-oxadiazole-2-carbonyl]amino]-2-pyridyl] spiro [8-azabicyclo [3.2.1]octane-3,3′-cyclobutane]-1′-carboxylic acid], half-maximal inhibition (IC50) required 37 nM. Regarding `O=C(Nc1ccc(N2CCC3(CC2)CC(C(=O)N2CCCC2)C3)nc1)c1nnc(Nc2ccc(F)c(F)c2)o1` [Example C1, 5-(3,4-difluoroanilino)-N-[6-[2-(pyrrolidine-1-carbonyl)-7-azaspiro[3.5]nonan-7-yl]-3-pyridyl]-1,3,4-oxadiazole-2-carboxamide], 1 µM produced 86% inhibition (1 uM). `CC1CCCCN1C(=O)C1CC2(CCN(c3ccc(NC(=O)c4nnc(Nc5ccc(F)c(F)c5)o4)cn3)CC2)C1` (stereo not drawn) [Example C2]: where the note is “1 uM”, the inhibition at 1 µM stood at 88%.

Take `O=C(Nc1ccc(N2CCC3(CC2)CC(C(=O)N2CCOCC2)C3)nc1)c1nnc(Nc2ccc(F)c(F)c2)o1` [Example C3]: the inhibition at 1 µM (1 uM) is 84%. Same read-out and setting: the result for `O=C(Nc1ccc(N2CCC3(CC2)CC(C(=O)NCC(F)(F)F)C3)nc1)c1nnc(Nc2ccc(F)c(F)c2)o1` [Example C4] reads 84%; that for `COC1CCN(C(=O)C2CC3(CCN(c4ccc(NC(=O)c5nnc(Nc6ccc(F)c(F)c6)o5)cn4)CC3)C2)CC1` [Example C5], 90%. Consider `O=C(Nc1ccc(N2CCC3(CC2)CC(C(=O)N2CCC(O)CC2)C3)nc1)c1nnc(Nc2ccc(F)c(F)c2)o1` [Example C6], for which the midpoint of inhibition, the IC50, lay at 33 nM. For `O=C(Nc1ccc(N2CCC3(CC2)CC(C(=O)N2CC(O)C2)C3)nc1)c1nnc(Nc2ccc(F)c(F)c2)o1` [Example C8], it took 11 nM to reach half-maximal inhibition (IC50). Turning to `O=C1CCN(C(=O)C2CC3(CCN(c4ccc(NC(=O)c5nnc(Nc6ccc(F)c(F)c6)o5)cn4)CC3)C2)CC1` [Example C9], the inhibition at 1 µM (1 uM) was 92%.

Take `O=C(Nc1ccc(N2CCC3(CC2)CC(F)(F)C3)nc1)c1nnc(Nc2ccc(F)c(F)c2)o1` [Example D1, 5-(3,4-difluoroanilino)-N-[6-(2,2-difluoro-7-azaspiro[3.5]nonan-7-yl)-3-pyridyl]-1,3,4-oxadiazole-2-carboxamide]: the IC50 came to 85 nM. In turn, `O=C(Nc1ccc(N2CCC3(CC2)CC(F)(F)C3)nc1)c1nnc(Nc2ccc(OCC(F)(F)F)nc2)o1` [Example D2] yielded an IC50 of 64 nM. Still for that read-out and setting: the result for `CC1CC2(CCN(c3ccc(NC(=O)c4nnc(Nc5ccc(F)c(F)c5)o4)cn3)CC2)C1` [Example D3] reads 32 nM; that for `CC1CC2(CCN(c3ccc(NC(=O)c4nnc(Nc5ccc(OCC(F)(F)F)nc5)o4)cn3)CC2)C1` [Example D4], 26 nM.

`O=C(Nc1ccc(N2CCC3(CC2)CC(O)C3)nc1)c1nnc(Nc2ccc(F)c(F)c2)o1` [Example D5] came in with an IC50 of 4 nM. `O=C(Nc1ccc(N2CCC3(CC2)CC(O)C3)nc1)c1nnc(Nc2ccc(OCC(F)(F)F)nc2)o1` [Example D6] registered an IC50 of 4.2 nM. For the molecule `O=C(Nc1ccc(N2CCC3(CC2)CC(F)C3)nc1)c1nnc(Nc2ccc(F)c(F)c2)o1` [Example D7], where the note is “1 uM”, at 1 µM the inhibition was 87%. On the same count and under the same terms, next, `O=C(Nc1ccc(N2CCC3(CC2)CC(F)C3)nc1)c1nnc(Nc2ccc(OCC(F)(F)F)nc2)o1` [Example D8]: 77%. For the setting “1 uM”, `Cn1nnnc1C1CC2(CCN(c3ccc(NC(=O)c4nnc(Nc5ccc(F)c(F)c5)o4)cn3)CC2)C1` [Example D9] had an inhibition at 1 µM of 91%.

With `O=C(Nc1ccc(N2CCC3(CC2)CC(CO)C3)nc1)c1nnc(Nc2ccc(F)c(F)c2)o1` [Example E1, 5-(3,4-difluoroanilino)-N-[6-[2-(hydroxymethyl)-7-azaspiro[3.5]nonan-7-yl]-3-pyridyl]-1,3,4-oxadiazole-2-carboxamide], the IC50 stood at 10 nM.

As for `NC(=O)C1CC2(CCN(c3ccc(NC(=O)c4nnc(Nc5ccc(F)c(F)c5)o4)cn3)CC2)C1` [Example F1, N-[6-(2-carbamoyl-7-azaspiro[3.5]nonan-7-yl)-3-pyridyl]-5-(3,4-difluoroanilino)-1,3,4-oxadiazole-2-carboxamide], it took 44 nM to reach half-maximal inhibition (IC50).

For `NC(=O)CC1CCC2(CC1)CCN(c1ccc(NC(=O)c3nnc(Nc4ccc(F)c(F)c4)o3)cn1)CC2` [Example F2, N-[6-[3-(2-amino-2-oxo-ethyl)-9-azaspiro[5.5]undecan-9-yl]-3-pyridyl]-5-(3,4-difluoroanilino)-1,3,4-oxadiazole-2-carboxamide], 19 nM corresponded to half-maximal inhibition (IC50). On to `Nc1ncnc2ncn(-c3ccc(N4CCC5(CC4)CC(F)C5)nc3)c(=O)c12` [Example K4], for which, for the setting “1 uM”, the inhibition at 1 µM is 19%. `CC1(C)CN(c2ccc(C3CCC4(CC3)CC4C(=O)O)cc2)C(=O)c2c(N)ncnc21` (stereo not drawn) [Example L5, 6-[4-(4-amino-8,8-dimethyl-5-oxo-7H-pyrido[4,3-d]pyrimidin-6-yl)phenyl]spiro[2.5]octane-2-carboxylic acid]: the “HEK293H cell % Inhibition at 1 uM” value (1 uM) was “No inhibition at 1 μM”.

As to `CC1(C)CN(c2ccc(C3CCC4(CCC(CC(=O)O)CC4)CC3)cc2)C(=O)c2c(N)ncnc21` (stereo not drawn) [Example L6], the inhibition at 1 µM (1 uM) was determined as 3%.
